ChEMBL document CHEMBL5512599, “Synthetic non-toxic anti-biofilm agents as a strategy in combating bacterial resistance” (Eur J Med Chem, 2023)
Values after ≈ are worked out from the molar mass of the structure shown. Each block holds one molecule with its values, some of them ahead of it.

How the values were obtained:
[1] = system: Pseudomonas aeruginosa; assay: Antibiofilm activity against Pseudomonas aeruginosa PA14 assessed as inhibition of biofilm formation incubated for 24 hrs by microscopic analysis; format: functional, organism-based; conditions: PA14, 24 h
[2] = system: Enterococcus faecalis; assay: Antibacterial activity against Enterococcus faecalis ATCC 29212 assessed as bacterial growth inhibition incubated for 15 to 18 hrs by Muller hinton broth based dilution assay; format: functional; conditions: time 15-18 hrs
[3] = system: Enterococcus faecalis; assay: Antibiofilm activity against Enterococcus faecalis ATCC 29212 assessed as biofilm eradication incubated for 20 mins by crystal violet staining based analysis; format: functional
[4] = system: Staphylococcus aureus; assay: Antibiofilm activity against Staphylococcus aureus ATCC 33862 assessed as reduction in biofilm formation at 20 uM incubated for 24 hrs by absorbance based assay relative to control; format: functional; parameters: scale not given: the % may be the effect or the level left
[5] = system: Pseudomonas aeruginosa; assay: Antibiofilm activity against Pseudomonas aeruginosa ATCC 10145 assessed as reduction in biofilm formation at 20 uM incubated for 24 hrs by absorbance based assay relative to control; format: functional; parameters: scale not given: the % may be the effect or the level left
[6] = system: Pseudomonas aeruginosa; assay: Anti-motility activity against Pseudomonas aeruginosa PAO1 assessed as reduction in swarming at 20 uM incubated for 16 hrs by crystal violet staining analysis relative to control; format: functional; parameters: scale not given: the % may be the effect or the level left
[7] = system: Staphylococcus epidermidis; assay: Antibiofilm activity against Staphylococcus epidermidis assessed as inhibition of biofilm formation at 40 uM measured after 24 hrs by confocal laser scanning microscopy analysis relative to control; format: functional; parameters: scale not given: the % may be the effect or the level left
[8] = system: Staphylococcus epidermidis; assay: Antibacterial activity against Staphylococcus epidermidis RP62A assessed as reduction in bacterial growth incubated for 18 to 20 hrs by broth microdilution assay; format: functional; conditions: time 18-20 hrs
[9] = Inhibition of Staphylococcus aureus sortase A by FRET assay
[10] = system: Staphylococcus aureus; assay: Antibacterial activity against Staphylococcus aureus ATCC 29213 assessed as reduction in bacterial growth incubated for 18 to 24 hrs by broth microdilution method; format: functional; conditions: time 18-24 hrs
[11] = system: Staphylococcus aureus; assay: Antibacterial activity against Staphylococcus aureus ATCC 25923 assessed as reduction in bacterial growth incubated for 18 to 24 hrs by broth microdilution method; format: functional; conditions: time 18-24 hrs
[12] = system: Staphylococcus aureus; assay: Antibacterial activity against Staphylococcus aureus ATCC 6538 assessed as reduction in bacterial growth incubated for 18 to 24 hrs by broth microdilution method; format: functional; conditions: time 18-24 hrs
[13] = system: Staphylococcus aureus; assay: Antibiofilm activity against Methicillin-resistant Staphylococcus aureus ATCC BAA-4A assessed as inhibition of biofilm formation; format: functional, organism-based
[14] = system: Staphylococcus aureus; assay: Antibiofilm activity against methicillin-resistant Staphylococcus aureus assessed as inhibition of biofilm formation incubated for overnight by crystal violet staining based microtiter plate assay; format: functional, organism-based
[15] = system: Pseudomonas aeruginosa; assay: Antibiofilm activity against Pseudomonas aeruginosa ATCC 27853 assessed as inhibition of biofilm formation at 0.5 times of MIC by crystal violet staining based analysis relative to control; format: functional; parameters: scale not given: the % may be the effect or the level left
[16] = Inhibition of quorum sensing system in Pseudomonas aeruginosa PA14 assessed as inhibition of pyocyanin production
[17] = Inhibition of Quorum sensing system Las in Pseudomonas aeruginosa PAO1 assessed as reduction in interaction with LasR regulator
[18] = system: Klebsiella pneumoniae; assay: Antibiofilm activity against Klebsiella pneumoniae ATCC 13882 assessed as inhibition of biofilm formation incubated for 24 hrs by crystal violet staining based broth microdilution method; format: functional, organism-based; conditions: ATCC 13882, 24 h
[19] = system: Pseudomonas aeruginosa; assay: Antibiofilm activity against Pseudomonas aeruginosa PAO1 assessed as reduction in biofilm formation at 100 uM incubated for 24 hrs by crystal violet staining based analysis relative to control; format: functional; parameters: scale not given: the % may be the effect or the level left
[20] = system: Staphylococcus aureus; assay: Antimicrobial activity against Staphylococcus aureus ATCC 25923 assessed as reduction in bacterial growth at 0.12 uM incubated for 16 hrs by broth dilution method relative to control; format: functional; parameters: scale not given: the % may be the effect or the level left
[21] = system: Staphylococcus aureus; assay: Antimicrobial activity against Staphylococcus aureus ATCC 25923 assessed as reduction in bacterial growth at 0.25 uM incubated for 16 hrs by broth dilution method relative to control; format: functional; parameters: scale not given: the % may be the effect or the level left
[22] = system: Staphylococcus aureus; assay: Antimicrobial activity against Staphylococcus aureus ATCC 25923 assessed as reduction in bacterial growth at 0.5 uM incubated for 16 hrs by broth dilution method relative to control; format: functional; parameters: scale not given: the % may be the effect or the level left
[23] = target: T1, Transcriptional regulator MvfR (Pseudomonas aeruginosa PA14, UniProt A0A072ZLE6); assay: Inhibition of PqsR-mediated quorum sensing system in Pseudomonas aeruginosa PAO1 assessed as reduction in pyocyanin production
T1 sequence (A0A072ZLE6 whole entry): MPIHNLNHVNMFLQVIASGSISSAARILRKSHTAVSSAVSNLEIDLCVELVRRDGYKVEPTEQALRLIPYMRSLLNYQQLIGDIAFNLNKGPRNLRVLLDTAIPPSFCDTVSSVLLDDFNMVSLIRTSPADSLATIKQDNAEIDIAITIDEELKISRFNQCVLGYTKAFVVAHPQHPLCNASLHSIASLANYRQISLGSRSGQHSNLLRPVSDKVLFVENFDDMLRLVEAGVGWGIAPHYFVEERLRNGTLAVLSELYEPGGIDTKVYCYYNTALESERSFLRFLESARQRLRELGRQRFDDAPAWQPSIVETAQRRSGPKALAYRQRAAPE

[24] = Inhibition of quorum sensing system in Pseudomonas aeruginosa PAO1 assessed as inhibition of pyocyanin production at 256 ug/ml incubated for 24 hrs by absorbance based assay; conditions: dose 256.0 µg/ml
[25] = system: Pseudomonas aeruginosa; assay: Antibiofilm activity against Pseudomonas aeruginosa PAO1 assessed as inhibition of biofilm formation at 64 microg/ml incubated for 24 hrs by BacTiter Glo reagent based luminescence analysis relative to control; format: functional; parameters: scale not given: the % may be the effect or the level left; conditions: dose 64 µg/ml
[26] = system: Staphylococcus aureus; assay: Antibiofilm activity against Staphylococcus aureus ATCC 25923 at 25 ug/ml measured after 24 hrs by crystal violet staining based analysis relative to control; format: functional; conditions: dose 25 µg/ml

- IC50 [1]: 43 µM
SMILES: CCCCCCCNC(=O)CCc1c[nH]c(N)n1

- MIC [2]: 0.25 µg/mL (≈ 0.549 µM)
SMILES: NC(=O)c1cc(-c2csc(-c3ccc(-c4cnc(-c5ccccc5)s4)cc3)n2)ccc1O
- MBEC [3]: 0.008 µg/mL

SMILES: CCCCCCCCCCCC(=O)Nc1cc(=O)c2ccccc2[nH]1
- Activity [4]: >=50%
- Activity [5]: >=50%

SMILES: CCCCCCCCCCCC(=O)Nc1c(N)[nH]c2ccccc2c1=O
- Activity [4]: >=50%
- Activity [5]: >=50%

SMILES: CN(C)c1cccc(/C=N/N=C2\SCC(=O)N2c2ccc(S(N)(=O)=O)cc2)c1
- Activity [6]: 70%
- Activity [7]: 70%

- MIC [8]: > 270 µM
- IC50 [9]: 57 µM
- MIC [10]: > 270 µM
- MIC [11]: > 270 µM
- MIC [12]: > 270 µM
SMILES: CC(=O)/C(=N\Nc1ccc([N+](=O)[O-])cc1)C(=O)O

SMILES: CCCCCc1ccc(C(=O)NCCn2cc(CCCCCc3[nH]cnc3-c3ccc4c(c3)OCO4)nn2)cc1
- IC50 [13]: 3.7 µM

SMILES: CCCCCc1ccc(C(=O)NCCn2cc(CCCCCc3[nH]cnc3-c3cnc4ccccc4c3)nn2)cc1
- IC50 [13]: 3.7 µM

SMILES: CCCCCc1ccc(C(=O)NCCn2cc(CCCCCc3c[nH]c(N)n3)nn2)cc1
- IC50 [14]: < 7.2 µM

SMILES: CCCCCCCCCCCCCC(=O)Nc1c(N)[nH]c2ccccc2c1=O
- Activity [4]: >=50%
- Activity [5]: >=50%

- IC50 [16]: 50 µM
SMILES: NCCCCCCCCCCCCNc1ccnc2cc(C(F)(F)F)ccc12
- Activity [15]: 75%

- IC50 [17]: 80 µM
SMILES: CCCCCCCCCC(=O)NC1CCCC1 [N-CYCLOPENTYLDECANAMIDE]

- IC50 [1]: 19 µM
SMILES: CCCCCCCCCCCc1c[nH]c(N)n1

- MIC [2]: 0.062 µg/mL (≈ 0.14 µM)
SMILES: O=[N+]([O-])c1ccc(-c2csc(-c3ccc(-c4cnc(-c5ccccc5)s4)cc3)n2)cc1
- MBEC [3]: 0.002 µg/mL

- MIC [8]: > 270 µM
- IC50 [9]: 50 µM
- MIC [10]: > 270 µM
- MIC [11]: > 270 µM
- MIC [12]: > 270 µM
SMILES: CC(=O)/C(=N\Nc1ccc(Cl)c(Cl)c1)C(=O)O

SMILES: CCCCCCCCCCCCCCCC(=O)Nc1cc(=O)c2ccccc2[nH]1
- Activity [4]: >=50%
- Activity [5]: >=50%

SMILES: CCCCCc1ccc(C(=O)NCCn2cc(CCCCCc3[nH]cnc3-c3ccoc3)nn2)cc1
- IC50 [13]: 3.7 µM

- IC50 [18]: 26.4 µM
SMILES: Nc1nccc(-c2cccc(NC(=O)c3cc(Cl)cc(Cl)c3)c2)n1

SMILES: C/C(=C\c1ccc2ccccc2c1)Cn1cc(CCCCCc2c[nH]c(N)n2)nn1
- IC50 [14]: < 10 µM

- MIC [8]: > 270 µM
- IC50 [9]: 87 µM
- MIC [10]: > 270 µM
- MIC [11]: > 270 µM
- MIC [12]: > 270 µM
SMILES: CC(=O)/C(=N\Nc1cccc(Cl)c1)C(=O)O

- IC50 [16]: 8 µM
SMILES: O=C(CCCOc1cccc(Br)c1)NC1CCSC1=O (stereo unspecified)
- Activity [19]: 62%

SMILES: Cc1ccc(C(=O)c2nn(-c3nc(-c4ccccc4)c(-c4sc(-n5nc(C(=O)c6ccc(C(F)(F)F)cc6)c(C(N)=O)c5N)nc4-c4ccccc4)s3)c(N)c2C(N)=O)cc1
- Activity [20]: 35%
- Activity [21]: 50%
- Activity [22]: 77%

SMILES: Clc1ccc2c(NCCCCCCCCNCc3cc4ccccc4o3)ccnc2c1
- IC50 [23]: 25 µM

- MIC [2]: 0.062 µg/mL (≈ 0.145 µM)
SMILES: COc1ccc(-c2csc(-c3ccc(-c4cnc(-c5ccccc5)s4)cc3)n2)cc1
- MBEC [3]: 0.004 µg/mL

SMILES: O=C(CCCCCOc1cccc(C(F)(F)F)c1)NNC(=O)Cn1c(=O)oc2ccccc21
- inhibition [24]: 63%
- Activity [25]: 45%

SMILES: Cc1nn(C)c(NC(=O)c2ccc([N+](=O)[O-])cc2)c1[N+]#N
- Activity [26]: 96%
